Literature values as cited in patent publication US11291622B2, “Method for dyeing keratinous material, comprising the use of an organosilicon compound, a dyeing compound and a silicon oil” (Henkel AG & Co. KGaA, priority 2018, dated 2022).
Like-named read-outs stand apart in the source and are kept apart here.

Row | solubility in water (at about 25° C.) | solubility in water (25° C.) | Compound
1 | highly soluble in water |  | O=C([O-])C1=NN(c2ccc(S(=O)(=O)[O-])cc2)C(=O)C1N=Nc1ccc(S(=O)(=O)[O-])cc1.[Na+].[Na+].[Na+] (centres unmarked) [Acid Yellow 23, trisodium salt of 4,5-dihydro-5-oxo-1-(4-sulfophenyl)-4-((4-sulfophenyl)azo)-1H-pyrazole-3-carboxylic acid]
2 |  | more than 20 % by weight | CCN(Cc1cccc(S(=O)(=O)[O-])c1)c1ccc(C(=C2C=CC(=[N+](CC)Cc3cccc(S(=O)(=O)[O-])c3)C=C2)c2ccccc2S(=O)(=O)[O-])cc1.[Na+].[Na+] [Acid Blue 9]
3 |  | about 2.5 g/L | Nc1cc(S(=O)(=O)[O-])cc2cc(S(=O)(=O)[O-])c(N=Nc3ccccc3)c(O)c12.[Na+].[Na+] [Acid Red 33, diantrium salt of 5-amino-4-hydroxy-3-(phenylazo)-naphthalene-2,7-disulphonate]
4 |  | about 20 g/L | mixture of the sodium salts of mono- and disulfonic acids of 2-(2-quinolyl)-1H-indene-1,3(2H)-dione [Acid Yellow 3]

Row | Compound | solubility in water (at about 25° C.) | solubility in water (25° C.)
5 | O=S(=O)([O-])c1ccc(N=Nc2c(O)ccc3ccccc23)cc1.[Na+] [Acid Orange 7, sodium salt of 4-[(2-hydroxy-1-naphthyl)azo]benzene sulphonate] |  | more than 7 g/L
